Data on nine compounds can be found in PubChem BioAssay (NCI).

Structures are written as SMILES.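 Tested at 5 concentrations; 48 h exposure; 96-well plates; endpoints linearly interpolated, else capped at highest concentration. GI50 = concentration required for 50% inhibition of growth. TGI: total growth inhibition.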

Among the test systems are HL-60(TB) leukemia; K-562 leukemia; KM12 colon; MOLT-4 leukemia; NCI-H23 lung; OVCAR-5 ovarian; SK-MEL-2 melanoma; SW-620 colon; TK-10 renal; U251 CNS.
Test in all cases: inhibition of tumour cell growth, NCI panel, 48 h

For `COc1ccc(C=NC23CC4CC(CC(C4)C2)C3)cc1`, the TGI in the assay with HL-60(TB) leukemia, in the assay on K-562 leukemia, in the assay with KM12 colon, with MOLT-4 leukemia, in the assay with NCI-H23 lung and in the assay with OVCAR-5 ovarian was above 100 µM throughout. Besides, the TGI with SK-MEL-2 melanoma, with SW-620 colon, with TK-10 renal and in the assay on U251 CNS was above 100 µM each time.

With `Cn1c(=O)c2[nH]c(COCc3nc4c([nH]3)c(=O)n(C)c(=O)n4C)nc2n(C)c1=O`, the TGI with HL-60(TB) leukemia, with K-562 leukemia, in the assay on KM12 colon, in the assay on MOLT-4 leukemia, in the assay with NCI-H23 lung and in the assay with OVCAR-5 ovarian was above 100 µM throughout. Further, the TGI in the assay on SK-MEL-2 melanoma, with SW-620 colon, with TK-10 renal and in the assay with U251 CNS was above 100 µM in each case.

For `O=C(c1ccc(NCN2C(=O)CCC2=O)cc1)c1ccc(NCN2C(=O)CCC2=O)cc1`, the TGI was 49.5 µM in the assay with HL-60(TB) leukemia; above 100 µM in the assay with K-562 leukemia; above 100 µM in the assay on KM12 colon; above 100 µM with MOLT-4 leukemia; above 100 µM with NCI-H23 lung; above 100 µM in the assay on OVCAR-5 ovarian. The TGI in the assay on SK-MEL-2 melanoma, in the assay with SW-620 colon, with TK-10 renal and in the assay on U251 CNS was above 100 µM in each case.

With `Cc1ccc(C(=O)N/N=C/c2cccc(Oc3ccccc3)c2)cn1`, the GI50 with HL-60(TB) leukemia was 1.8 µM; in the assay on K-562 leukemia it was 1.81 µM; with KM12 colon, 3.69 µM; in the assay with MOLT-4 leukemia, 3.83 µM; in the assay with NCI-H23 lung, 26.6 µM; with OVCAR-5 ovarian it was above 100 µM. For the same compound, the GI50 was above 24.6 µM in the assay with SK-MEL-2 melanoma, 4.79 µM in the assay on SW-620 colon, 14.4 µM in the assay on TK-10 renal and 6.03 µM with U251 CNS. For the same compound, the TGI is 5.77 µM with HL-60(TB) leukemia; above 100 µM in the assay with K-562 leukemia; above 100 µM in the assay on KM12 colon; 34.5 µM in the assay with MOLT-4 leukemia; above 100 µM in the assay on NCI-H23 lung; above 100 µM with OVCAR-5 ovarian. The TGI with SK-MEL-2 melanoma, in the assay with SW-620 colon, in the assay with TK-10 renal and in the assay with U251 CNS was above 100 µM each time.

On to `CC1(C)N=C(N)N=C(N)N1c1cccc(CCCCc2ccc(S(=O)(=O)F)cc2Cl)c1`, for which the GI50 in the assay with HL-60(TB) leukemia was 7.02 µM; in the assay on K-562 leukemia, 3.42 µM; in the assay on KM12 colon, 1.72 µM; with MOLT-4 leukemia it was 7.42 µM; in the assay with NCI-H23 lung, 4.27 µM; in the assay on OVCAR-5 ovarian, 6.29 µM. The GI50 with SK-MEL-2 melanoma was 6.42 µM; in the assay on SW-620 colon it was 0.701 µM; with TK-10 renal, 8.66 µM; with U251 CNS, 0.722 µM. Besides, the TGI with HL-60(TB) leukemia was 55.8 µM; in the assay with K-562 leukemia it was above 100 µM; in the assay with KM12 colon, 15.7 µM; with MOLT-4 leukemia it was above 65.3 µM; in the assay with NCI-H23 lung it was 27.3 µM; with OVCAR-5 ovarian, above 100 µM. For the same compound, the TGI in the assay with SK-MEL-2 melanoma was above 58.5 µM; in the assay on SW-620 colon it was above 39.8 µM; with TK-10 renal it was above 100 µM; with U251 CNS it was 20.4 µM.

Take `CN1CCN(Cc2ccc(NC(=O)c3[nH]ncc3Nc3ncnc4c3CCC4)cc2)CC1`: the GI50 in the assay with HL-60(TB) leukemia is 0.728 µM; in the assay on K-562 leukemia it was 0.648 µM; in the assay on KM12 colon, 0.767 µM; with MOLT-4 leukemia it was 0.447 µM; with NCI-H23 lung, 1.8 µM; in the assay on OVCAR-5 ovarian, 3.59 µM. The GI50 is 2.14 µM in the assay on SK-MEL-2 melanoma, 0.836 µM in the assay with SW-620 colon, 4.02 µM in the assay with TK-10 renal and 1.48 µM with U251 CNS. The TGI in the assay on HL-60(TB) leukemia turned out to be 3.29 µM; in the assay with K-562 leukemia, 12.1 µM; in the assay with KM12 colon, 11.1 µM; in the assay with MOLT-4 leukemia, 3 µM; with NCI-H23 lung, 6.79 µM; in the assay on OVCAR-5 ovarian, 16.2 µM. Further, the TGI in the assay on SK-MEL-2 melanoma turned out to be 6.63 µM; with SW-620 colon, 10.3 µM; with TK-10 renal, 8.85 µM; in the assay on U251 CNS it was 12.4 µM.

Turning to `CC(C)(C)C(=O)C(c1ccc(-c2cscn2)cc1)c1ccc(-c2cscn2)cc1`, the TGI in the assay on HL-60(TB) leukemia, with K-562 leukemia, in the assay with KM12 colon, in the assay on MOLT-4 leukemia, with NCI-H23 lung and in the assay with OVCAR-5 ovarian was above 100 µM throughout. The TGI with SK-MEL-2 melanoma is 68.5 µM; in the assay on SW-620 colon it was above 100 µM; with TK-10 renal, 92 µM; in the assay on U251 CNS, above 60.8 µM.

In the case of `C#CC[C@H](c1nc2cc(Cl)ccc2c(=O)n1Nc1ccccc1)N(CCCN)C(=O)c1cccc(Cl)c1F`, the GI50 was 0.13 µM in the assay with HL-60(TB) leukemia; 0.0968 µM with K-562 leukemia; 0.18 µM with KM12 colon; 0.264 µM with MOLT-4 leukemia; 0.624 µM in the assay with NCI-H23 lung; 0.419 µM in the assay with OVCAR-5 ovarian. Moreover, the GI50 in the assay with SK-MEL-2 melanoma is 0.177 µM; in the assay on SW-620 colon it was 0.237 µM; in the assay with TK-10 renal, 1.39 µM; in the assay on U251 CNS, 0.293 µM. Further, the TGI is 0.605 µM in the assay with HL-60(TB) leukemia; 1.85 µM in the assay on K-562 leukemia; 1.63 µM with KM12 colon; 2.8 µM with MOLT-4 leukemia; 11.2 µM with NCI-H23 lung; 2.56 µM with OVCAR-5 ovarian. Further, the TGI in the assay with SK-MEL-2 melanoma was determined as 1.29 µM; with SW-620 colon it was 1.81 µM; in the assay with TK-10 renal, 2.8 µM; with U251 CNS it was 1.27 µM.

Consider `CCc1ccc(CCC(=O)Nc2ncc(Cc3ccccc3)s2)o1`, for which the GI50 in the assay on HL-60(TB) leukemia is 1.53 µM; with K-562 leukemia, 0.529 µM; in the assay on KM12 colon, 1.3 µM; in the assay on MOLT-4 leukemia it was 2.43 µM; in the assay on NCI-H23 lung it was 4.47 µM; with OVCAR-5 ovarian, 3.93 µM. The GI50 was 5.42 µM in the assay with SK-MEL-2 melanoma, 0.889 µM in the assay on SW-620 colon, 23 µM with TK-10 renal and 3.06 µM with U251 CNS. Besides, the TGI with HL-60(TB) leukemia was 4.38 µM; in the assay with K-562 leukemia it was above 100 µM; with KM12 colon, above 100 µM; in the assay with MOLT-4 leukemia it was above 100 µM; in the assay on NCI-H23 lung it was above 100 µM; with OVCAR-5 ovarian, above 100 µM. Further, the TGI in the assay with SK-MEL-2 melanoma, in the assay with SW-620 colon, in the assay with TK-10 renal and in the assay with U251 CNS was above 100 µM each time.
